Test results reported in publication PMC10057893, “Synthesis and Biological Evaluation of New Schiff Bases Derived from 4-Amino-5-(3-fluorophenyl)-1,2,4-triazole-3-thione” (Molecules, 2023).
≈ marks a conversion by molar mass, not a printed value. Where two headings read alike, the source gives them in different places.

Tests used:
[1] = test system: Bacillus subtilis ATCC 6633; test: Broth microdilution MIC/MBC, antibacterial; format: cell-based; settings: ATCC6633
Protocol: (§1) The minimal inhibitory concentration (MIC) was determined with the microdilution technique using 96-well polystyrene microplates (Medlab, Poland), as indicated by the European Committee on Antimicrobial Susceptibility Testing (EUCAST) guidelines. In this process, stock solutions of each tested Schiff base dissolved in dimethylsulphoxide (DMSO, Stanlab, Poland) were used at a concentration of 50 mg/mL. Before in vitro antibacterial activity detection, the basic concentration of 1000 µg/mL of each compound was prepared with Mueller–Hinton broth medium (MHB, BioMaxima, Lublin, Poland). The experiment was prepared using Mueller–Hinton broth medium in 96-well microplates. A series of two-fold dilutions of the tested compounds in the concentration range from 0.49 to 1000 μg/mL was made in culture broth medium. Then, 2 μL of bacterial inoculum with a density of 0.5 McFarland standard was added to each well. Each well was filled with a total volume of 100 μL. Then, the microtiter plates were incubated for 18 ± 2 h at 35 °C. After the incubation, the results were spectrophotometrically determined in Biotek ELx800 (Biokom, Janki, Poland) at 600 nm (OD600). The lowest concentration of the tested compounds with the absence of bacterial growth was determined as an MIC. Three replicates for each strain and compound were performed.
(§2) After incubation, 5 μL of the broth media cultured with bacteria or fungi were removed from each well of the plates used in the MIC experiments. Next, they were culturd onto the surface of the MHA medium (BioMaxima, Lublin, Poland) plate for bacteria or MHA +2% glucose plate for yeasts. The inoculated plates were incubated in the conditions mentioned above. After incubation, a visual reading of MBC or MFC values was made. […] Three replicates for each strain and compound were performed.

[2] = test system: Escherichia coli ATCC 25922; test: Broth microdilution MIC/MBC, antibacterial; format: cell-based; settings: ATCC25922, Escherichia coli ATCC 25922
Protocol: as §1, §2

[3] = test system: Klebsiella pneumoniae ATCC 13883; test: Broth microdilution MIC/MBC, antibacterial; format: cell-based; settings: ATCC13883, Klebsiella pneumoniae ATCC 13883
Protocol: as §1, §2

[4] = test system: Micrococcus luteus ATCC 10240; test: Broth microdilution MIC/MBC, antibacterial; format: cell-based; settings: ATCC10240
Protocol: as §1, §2

[5] = test system: Pseudomonas aeruginosa ATCC 27853; test: Broth microdilution MIC/MBC, antibacterial; format: cell-based; settings: ATCC27853
Protocol: as §1, §2

[6] = test system: Staphylococcus aureus ATCC 6538; test: Broth microdilution MIC/MBC, antibacterial; format: cell-based; settings: ATCC6538
Protocol: as §1, §2

[7] = test system: Staphylococcus epidermidis ATCC 12228; test: Broth microdilution MIC/MBC, antibacterial; format: cell-based; settings: ATCC12228
Protocol: as §1, §2

[8] = test system: Candida albicans ATCC 10231; test: Broth microdilution MIC/MFC, antifungal; format: cell-based; settings: ATCC10231
Protocol: (§3) To determine the antifungal activity of the newly synthesized Schiff bases against the reference strains of Candida spp., the broth microdilution method was used according to the EUCAST [52] and Clinical and Laboratory Standards Institute (CLSI) guidelines with some modifications to the medium. Before in vitro antifungal activity detection, the basic concentration of 1000 µg/mL of each compound was prepared with Mueller–Hinton broth (BioMaxima, Lublin, Poland) supplemented with 2% glucose (MHB+2% glucose). […] The final concentrations of the Schiff bases ranged from […] to 1000 µg/mL. All the reference strains of Candida spp. used were first subcultured to the Mueller–Hinton agar medium (BioMaxima, Lublin, Poland) with 2% glucose (MHA +2% glucose) at 37 °C for 24 h. Next, 2 µL of appropriate fungal suspensions was added to each well containing 100 µL of MHB + 2% glucose and the various concentrations of the tested Schiff bases.
as §2

Candida auris CDC B11903 = test: Broth microdilution MIC/MFC, antifungal; format: cell-based; settings: Candidozyma auris, CDCB11903
Protocol: as §3, §2

[9] = test system: Candida glabrata ATCC 15126; test: Broth microdilution MIC/MFC, antifungal; format: cell-based; settings: Nakaseomyces glabratus, ATCC15126
Protocol: as §3, §2

[10] = test system: Candida glabrata ATCC 90030; test: Broth microdilution MIC/MFC, antifungal; format: cell-based; settings: Nakaseomyces glabratus, ATCC90030
Protocol: as §3, §2

[11] = test system: Candida krusei ATCC 14243; test: Broth microdilution MIC/MFC, antifungal; format: cell-based; settings: Pichia kudriavzevii, ATCC14243
Protocol: as §3, §2

[12] = test system: Candida lusitaniae ATCC 3449; test: Broth microdilution MIC/MFC, antifungal; format: cell-based; settings: Clavispora lusitaniae, ATCC3449
Protocol: as §3, §2

[13] = test system: Candida tropicalis ATCC 1369; test: Broth microdilution MIC/MFC, antifungal; format: cell-based; settings: ATCC1369
Protocol: as §3, §2

MDA-MB-231 = test: MTT cell viability assay; format: cell-based, human; settings: Homo sapiens, MDA-MB-231, MTT, read-out: Cytotoxic activity IC50
Protocol: (§4) All the cell lines were purchased from the American Type Culture Collection (ATCC, Rockville, MD, USA) and cultured in strictly defined conditions according to the recommended ATCC protocol. The PC3 cells were cultured in RPMI 1640 (Roswell Park Memorial Institute, Biowest SAS, Nuaillé, France), while the MDA-MB-231 and HaCaT cells were maintained in DMEM (Dulbecco’s Modified Eagle’s Medium, Biowest SAS, Nuaillé, France) supplemented with 1% streptomycin and penicillin and in 10% heat-inactivated fetal bovine serum (FBS, Gibco BRL San Francisco, CA, USA) with 1% streptomycin and penicillin. The cells were incubated in a 37 °C/5% CO2 humidified incubator. They were cultured until 80–90% confluence was achieved. Then, they were harvested by treatment with 0.25% trypsin-0.02% EDTA (Gibco BRL, San Francisco, CA, USA) and used in the experiments. Untreated cells were used as a control. […] After 24 h of incubation, the culture medium was replaced with a fresh medium. […] Then, the medium was aspirated and formed formazan crystals were solubilized by adding isopropanol-DMSO mixture (1:1 vol). The intensity of the dissolved crystals was measured using a UVM 340 reader (ASYS Hitech GmbH, Eugendorf, Austria) at a wavelength of 570 nm. Cell viability was estimated by the percentage of MTT reduction in cells to which the tested compounds were added, compared to the control sample, where only the medium was added. The experiments were repeated three times. The IC50 was calculated using GraphPad Prism 9.0.0 (GraphPad Software).

PC3 = test: MTT cell viability assay; format: cell-based, human; settings: Homo sapiens, PC-3, PC3, MTT, read-out: Cytotoxic activity IC50
Protocol: as §4

MTT cell viability assay = format: cell-based; settings: human, HaCaT cells (immortal keratinocytes), HaCaT normal cell line, read-out: Cytotoxic activity IC50 (converted)
Protocol: as §4

[14] = test system: tested strains of bacteria; parameters: method as in PMID 25412038; settings: cited from earlier work
C. albicans = test system: C. albicans; parameters: method as in PMID 25412038; settings: cited from earlier work

Compound: Fc1ccc(C=Nn2c(-c3cccc(F)c3)n[nH]c2=S)cc1 [RO7, 4-[(4-fluorobenzylidene)amino]-5-(3-fluorophenyl)-2,4-dihydro-3H-1,2,4-triazole-3-thione]
- MIC [1]: > 1000 µg/mL
- MIC [2]: > 1000 µg/mL
- MIC [3]: > 1000 µg/mL
- MBC [4]: > 1000 µg/mL
- MIC [4]: 250 µg/mL (≈ 0.79 mM)
- MIC [5]: > 1000 µg/mL
- MBC [6]: > 1000 µg/mL
- MIC [6]: 500 µg/mL (≈ 1.58 mM)
- MBC [7]: > 1000 µg/mL
- MIC [7]: 500 µg/mL (≈ 1.58 mM)
- MIC [8]: > 1000 µg/mL
- MIC (Candida auris CDC B11903): > 1000 µg/mL
- MIC [9]: > 1000 µg/mL
- MIC [10]: > 1000 µg/mL
- MIC [11]: > 1000 µg/mL
- MIC [12]: > 1000 µg/mL
- MIC [13]: > 1000 µg/mL
- IC50 (MDA-MB-231; 72 h (table footnote)): > 100 µM
- IC50 (MDA-MB-231; same value in µg/mL): > 31.6 µg/mL
- IC50 (PC3; 72 h (table footnote)): > 100 µM
- IC50 (PC3; same value in µg/mL): > 31.6 µg/mL
- IC50 at 72 h (MTT cell viability assay; 72 h (table footnote)): > 100 µM
- IC50 at 72 h (MTT cell viability assay; same value in µg/mL): > 31.6 µg/mL
- melting point: 217 to 218 °C
- MICs [14]: 16 to 125 µg/mL
- MIC (C. albicans): 4 µg/mL (≈ 0.0126 mM)
